This is an account of results in patent US20060165641A1, “Cosmetic compositions containing combinations of hydroxamate derivatives and antioxidants in a liposomal delivery system” (priority 2005, published 2006).

As a reminder, the IC50 is the point on the concentration scale where inhibition reaches its midpoint. A low value points to inhibition by little substance.

A short description of experiment [1]: UV-induced lipid peroxidation of lecithin liposomes (malonaldehyde). The settings on record: relative to EGCG taken as 100%. As to the method:
The ability of NDGA to prevent UV-induced lipid peroxidation was measured in comparison to other antioxidant industry standards such as vitamin E, vitamin C and green tea polyphenols. The assay was performed by irradiating a suspension of lecithin liposomes with UV light for 4 hours, in the absence or in the presence of the different compounds. Malonaldehyde levels (a breakdown product of oxidized lipids) were measured in aliquots of the reaction mixture at different times. The rate of lipid oxidation was calculated from the increase in malonaldehyde content. Relative potency was calculated by taking epigallocatechin gallate (EGCG) as 100%. The antioxidant used in the comparisons are listed in the left column. The middle column lists the effective concentration at which the compound is 50% effective (EC 50) for inhibition of lipid peroxidation, while the right column lists the relative potency of the samples, as compared to polyphenol of tea, which is taken as 100.

The nature of experiment [2]: Singlet oxygen scavenging test (Rose Bengal / iodide). Conditions: % inhibition of control; compared with Coenzyme Q10 and green tea polyphenols. On the procedure:
Singlet forms of molecular oxygen are excited electronic configurations that are more reactive than the spin-restricted ground state. These forms can be generated in tissues by a variety of mechanisms. Particularly relevant to the skin is light-induced production of singlet oxygen. The singlet oxygen scavenging test is performed by irradiation of a reaction mixture that contains a photosensitizer dye (Rose Bengal) and iodide ions. The excited dye transfers its energy to ground state oxygen to generate singlet oxygen which in turn oxidizes iodide to I3^−. Production of I3^− is followed spectrophotometrically at 355 nm. If a test sample is a singlet oxygen quencher, it will decrease the rate of I3^− production.

The nature of experiment [3]: Hydroxyl radical scavenging (Fenton reaction, terephthalic acid). Conditions: compared with green tea polyphenols, glutathione, vitamin E. On the procedure: Hydroxyl radical scavenging of NDGA was measured by generation of .OH via the Fenton reaction with terephthalic acid as oxidizable substrate. Hydroxylation of terephthalic acid results in production of a fluorescent product. The rate of the reaction is determined by measuring the time course of fluorescence increase. If a test sample is a hydroxyl radical scavenger, it will decrease the reaction rate.
FIG. 6 is a table displaying hydroxyl radical scavenging activity of NDGA in comparison with green tea polyphenols (GTP) and Vitamin E, indicated in the left column.

The test system of experiment [4] is AP-1 transcription factor. Conditions: keratinocyte cell line HaCaT; very low levels; cited from earlier work.
Experiment [5] relates to MMP 13. The settings on record: primary human chondrocytes; cited from earlier work.
For experiment [6], the system named is MMP 13. The settings on record: human chondrosarcoma cell line SW1353; cited from earlier work.
Experiment [7] has as its target MMP-9 (also known as gelatinase) (Homo sapiens, UniProt P14780). The experiment can be described thus: MMP inhibition, fluorogenic peptide assay. Conditions: for MMP-9 inhibitory activity (in words): fluorogenic peptide assay.
Procedure: In this system, the substrate is a fluorogenic peptide which, when cleaved by the MMP, undergoes an increase in fluorescence. The reaction is followed by monitoring the increase in the fluorescence of the reaction mixture for 2 hours. The rate of fluorescence increase is a measure of the reaction rate. The assay is performed in microtiter plates using triplicate wells per condition. The test sample contains specific MMP and the putative MMP inhibitor at several concentrations and the mean rate of the reaction at each of these conditions is compared to the reaction rate in the absence of inhibitor. The concentration of the test sample that inhibits the reaction rate (i.e., MMP inhibition) by 50% is defined as the “50% Inhibitory Concentration” or IC50.
The subject of experiment [8] is normal human keratinocytes. The experiment can be described thus: UVB-induced TNF-α production by keratinocytes (ELISA, normalized to MTT viability). Conditions: UVB 35 mJ/cm2, 24 hrs; low concentrations of NDGA. (In an ELISA, binding on a coated surface is turned into a signal by an enzyme label.)
The test system of experiment [9] is normal human keratinocytes. The experiment can be described thus: UVB-induced PGE2 production by keratinocytes (ELISA, normalized to MTT viability). Type of experiment: cell-based. Conditions: UVB 30 mJ/cm2; SHA at as low as 5 uM. On the procedure: The anti-inflammatory effect of SHA was measured by pretreating normal human keratinocytes with different concentrations of SHA for 24 hrs. The cells were UVB irradiated with a single sub-lethal dose of 30 mJ/cm2 using a Phillips TL20W12 tube. Cells were further incubated for 24 hrs with SHA and prostaglandin E2 (PGE2) levels in the supernatant media samples were analyzed by ELISA. 20 uM indomethacin was included as a positive control as an anti-inflammatory agent. The cell viability was also tested at the end of the 24 hr incubation period using the MTT metabolism method. […] The data was expressed as PGE2 production normalized to cell viability. PGE2, or prostaglandin E2, is an inflammatory mediator produced during inflammatory reactions in the skin. Any agents that inhibit the production of PGE2 will therefore have a beneficial effect of preventing inflammation (in other words, an anti-inflammatory effect). The top three bars display the effect of SHA at various concentrations on the UVB irradiated cells, the 4th bar the effect of indomethscin, the 5th bar the effect of UVB radiation on untreated cells, while the bottom bar is a control (untreated cells, not UVB irradiated).

Experiment [10] deals with normal human keratinocytes. The experiment in a line: Cornified envelope formation / differentiation of keratinocytes. It is filed as cell-based. The settings on record: 0.15 mM calcium medium; relative to high calcium (1 mM) cultures. As to the method:
To measure the induction of differentiation of keratinocytes, cultures of normal human keratinocytes were incubated with medium containing 0.15 mM calcium (low calcium prevents CE formation and keeps cells in growth mode). The cells were treated with different amounts of SHA and the amount of the highly cross-linked, detergent insoluble CE formation was quantified after dissolving the cells in 2% SDS/20 mM Dithiothrietol (DTT). The insoluble CE was centrifuged, resuspended in water and the optical density of the turbid solution was measured at 400 nm. The increase in turbidity indicates increased CE formation. […] The results, presented in the right column, are expressed relative to high calcium (1 mM) containing cultures.

Experiment [11] has as its system fibroblasts. The experiment in a line: Fibroblast collagen-1 secretion (ELISA). The settings on record: 0.1 mM SHA, 48 hrs. It is filed as cell-based. On the procedure:
(§1) In addition, SHA stimulates collagen and integrin synthesis of keratinocytes and fibroblasts. This was measured by treating keratinocyte or fibroblast cultures with SHA for 48 hrs and testing the medium for collagen and integrin secretion using appropriate antibodies using commercially available ELISA kits. The ELISA measures the secretion of collagen-1 and three different types of integrins, integrin alpha-2, -3 and -5. […] The data, presented in the right column, are expressed as a % stimulation of collagen secretion as compared to the control. […] Stimulation of collagen synthesis would provide more integrity to the dermis and would benefit in reducing wrinkles and will provide anti-aging benefits.

The test system of a further experiment is keratinocytes. The experiment can be described thus: Integrin expression of keratinocytes (ELISA). Type of experiment: cell-based. Conditions: 48 hrs. As to the method:
as §1
(§2) SHA can also stimulate integrin expression of fibroblasts and keratinocytes. […] In each table, that left column lists the various concentrations of SHA used in the tests, while the three right columns present integrin expression data, for different varieties of integrin, expressed as a % stimulation with respect to the control (0 mM SHA). […] Integrin is a vital component of the cell extracellular matrix that helps in cell adhesion and attachment. The increased amount of integrin helps cells to attach and grow, making skin firmer and more cellular. […]

The subject of experiment [12] is fibroblasts. The experiment can be described thus: Integrin expression of fibroblasts (ELISA). It is filed as cell-based. Conditions: 48 hrs. On the procedure:
as §1, §2

The target in a further experiment is mushroom tyrosinase. The experiment in a line: Inhibition of mushroom tyrosinase (tyrosine to DOPAchrome, OD475). It is filed as biochemical. On the procedure: The skin lightening effect of SHA was determined by measuring the inhibition of tyrosinase since tyrosinase is the enzyme that catalyzes the rate limiting steps in melanin synthesis. Inhibition of mushroom tyrosinase was assayed by measuring conversion of tyrosine to DOPAchrome (OD475) in the presence of varying concentrations of test sample. […] Thirty nanomolar SHA inhibited over 30% of the activity. The IC50 is 60 nM.

Molecules are shown by their SMILES. Several values for one entry are separate records, joined by “and”; a condition that tells them apart may be missing. Equal entries are not always repeated. Entries after “also recorded” stand apart in the source; their conditions may differ. Where two headings read alike, the source gives them in different places.

Sequence of MMP-9 (also known as gelatinase) (P14780 94-707, species assumed): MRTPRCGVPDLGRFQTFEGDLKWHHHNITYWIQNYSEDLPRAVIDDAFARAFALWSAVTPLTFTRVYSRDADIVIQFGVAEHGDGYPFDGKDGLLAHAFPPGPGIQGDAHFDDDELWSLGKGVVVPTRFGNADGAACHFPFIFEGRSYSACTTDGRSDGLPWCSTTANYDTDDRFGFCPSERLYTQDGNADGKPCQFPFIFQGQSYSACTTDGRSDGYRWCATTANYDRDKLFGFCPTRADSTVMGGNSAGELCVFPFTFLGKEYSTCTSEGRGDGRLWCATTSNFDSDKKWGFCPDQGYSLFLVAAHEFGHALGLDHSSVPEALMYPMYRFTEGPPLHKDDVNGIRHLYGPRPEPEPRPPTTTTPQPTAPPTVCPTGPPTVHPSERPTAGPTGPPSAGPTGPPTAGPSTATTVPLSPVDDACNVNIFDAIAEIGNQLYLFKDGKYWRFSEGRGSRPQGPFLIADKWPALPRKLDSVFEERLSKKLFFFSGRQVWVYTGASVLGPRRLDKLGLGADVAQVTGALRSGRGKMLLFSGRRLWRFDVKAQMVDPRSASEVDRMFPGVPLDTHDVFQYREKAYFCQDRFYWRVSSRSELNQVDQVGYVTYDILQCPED

As to `CC(Cc1ccc(O)c(O)c1)C(C)Cc1ccc(O)c(O)c1` (stereo not drawn) [NDGA, nordihydroguaiaretic acid], the “relative potency, inhibition of lipid peroxidation” value in experiment [1] is “twice as potent as the next most effective antioxidant (EGCG); also recorded: two orders of magnitude more potent than the vitamin E varieties”. Also, in [2], the “singlet oxygen scavenging activity” value is “very powerful singlet oxygen scavenger, equivalent to green tea polyphenols and better than coenzyme Q10”. The “hydroxyl radical scavenging activity” value in [3] is “slightly more effective than green tea polyphenols and far more potent than glutathione or vitamin E”. In experiment [4], the “inhibition of AP-1 activation” value is reported as “at very low levels inhibits AP-1 activation”. Also, the “inhibition of TNF-α induced MMP 13 mRNA and protein induction” value with MMP 13 [5] is “inhibits TNF-α induced MMP 13 mRNA and protein induction”; in the experiment with MMP 13 [6] it was “inhibits TNF-α induced MMP 13 mRNA and protein induction”. In addition, the concentration for half-maximal inhibition (IC50) in experiment [7] (IC50 MMP-9 inhibition, fluorogenic peptide, 2 hours) is ~232 µM and ~100 µM. Further, the “MMP-9 inhibitory activity (in words)” value in experiment [7] is on record as “very high MMP-9 inhibitory activity”. Moreover, the “TNF alpha production normalized to cell viability” value in [8] is “effectively blocked UVB-induced inflammation in keratinocytes; also recorded: much more effective than dexamethasone or green tea polyphenols”.

In the case of `O=C(NO)c1ccccc1O` [SHA, Salicylhydroxamate], the “PGE2 production normalized to cell viability (anti-inflammatory effect)” value in [9] was “potent anti-inflammatory effects”. For the same compound, in [10], the “cornified envelope formation (terminal differentiation)” value is “induces terminal differentiation of keratinocytes, increases the formation of CE”. The “stimulation of collagen secretion compared to control” value with fibroblasts [11] is reported as “significantly stimulated the collagen synthesis of fibroblasts”. Also, the “integrin expression (alpha-2, -3, -5) vs control” value with keratinocytes is “increasing the integrin expression of keratinocytes”; in the experiment with fibroblasts [12], “increasing the integrin expression of keratinocytes and fibroblasts”. Also, half-maximal inhibition against mushroom tyrosinase (IC50) required 60 nM. Moreover, the “inhibition of tyrosinase activity” value in the experiment with mushroom tyrosinase (Thirty nanomolar SHA) is given as “over 30%”. Moreover, the “MMP-9 inhibitory activity (in words)” value in experiment [7] is “excellent and potent inhibitors of matrix metalloproteases”.

Turning to `NC(Cc1c[nH]c2ccccc12)C(=O)NO` (stereo not drawn) [tryptophan hydroxamate], the “MMP-9 inhibitory activity (in words)” value in experiment [7] was “excellent and potent inhibitors of matrix metalloproteases”.
